Patent US7700654B2 (LTS Lohmann Therapie-Systeme AG, priority 2005, dated 2010)

Columns and labels:
[1] = molecular target: T1, human androgen receptor (hAR) (Homo sapiens, UniProt P10275); test: reporter gene-based (MMTV-luc luciferase) test for antiandrogenic activity in transfected CV1 cells; format: cell-based; settings: compounds at 10 μM; high R1881 concentration 3×10^−8 M
T1 construct: expressed in transfected cells; host or cells: CV1 monkey kidney cells (lacking endogenous androgen receptor)
T1 sequence (P10275 1-920): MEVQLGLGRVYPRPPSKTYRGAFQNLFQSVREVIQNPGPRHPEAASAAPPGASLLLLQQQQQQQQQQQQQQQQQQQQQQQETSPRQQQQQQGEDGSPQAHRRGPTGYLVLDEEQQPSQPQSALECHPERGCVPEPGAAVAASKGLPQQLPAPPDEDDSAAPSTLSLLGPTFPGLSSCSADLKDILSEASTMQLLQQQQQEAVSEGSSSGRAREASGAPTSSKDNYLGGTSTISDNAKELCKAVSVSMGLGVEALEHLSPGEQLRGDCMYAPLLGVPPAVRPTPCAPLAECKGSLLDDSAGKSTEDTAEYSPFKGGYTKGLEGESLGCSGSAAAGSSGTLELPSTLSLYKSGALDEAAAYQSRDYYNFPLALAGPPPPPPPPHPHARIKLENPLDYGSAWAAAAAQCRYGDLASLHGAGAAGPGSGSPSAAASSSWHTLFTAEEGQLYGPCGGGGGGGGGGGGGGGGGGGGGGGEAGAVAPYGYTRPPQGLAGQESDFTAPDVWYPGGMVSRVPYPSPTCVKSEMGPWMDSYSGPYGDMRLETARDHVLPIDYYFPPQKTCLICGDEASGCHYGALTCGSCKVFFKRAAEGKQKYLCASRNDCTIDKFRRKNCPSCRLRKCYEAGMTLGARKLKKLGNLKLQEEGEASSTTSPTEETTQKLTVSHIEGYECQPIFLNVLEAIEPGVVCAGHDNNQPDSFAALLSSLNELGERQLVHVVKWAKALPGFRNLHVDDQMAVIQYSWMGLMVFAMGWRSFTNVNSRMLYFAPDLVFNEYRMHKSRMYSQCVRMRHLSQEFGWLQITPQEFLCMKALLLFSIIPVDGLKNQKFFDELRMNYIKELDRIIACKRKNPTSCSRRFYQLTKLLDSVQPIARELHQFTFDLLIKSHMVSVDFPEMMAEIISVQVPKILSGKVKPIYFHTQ
Protocol: Monkey kidney cells, line CV1, lacking endogenous androgen receptor were cultured in Dulbecco's modified Eagle's medium (DMEM), supplemented with 10% (v/v) fetal calf serum, penicillin (100 IU/ml) and streptomycin (100 IU/ml) at 37° C. and 5% CO2.
For the transfection experiments, cells were seeded onto 6-well tissue culture plates (Nunc, Roskilde, Denmark) with a density of 1.2×10^5 cells per well and grown in DMEM medium supplemented with 10% (v/v) dextran-coated activated charcoal stripped serum. Six hours after seeding, the cells were transfected by using the Ca3(PO4)2 method. The human androgen receptor (hAR) expression vector (0.2 μg) was cotransfected with 1 μg of the reporter plasmid MMTV-luc and 0.2 μg of the cytomegalovirus (CMV)-driven β-galactosidase expression […], as internal control for transfection efficiency. After 14 hours, the medium was replaced either without (white bars in FIGS. […] 1), fractions (FIG. 2) or substances (FIG. 3). After an additional 48 hours, cells were harvested and assayed for luciferase and β-galactosidase activity.
Luciferase activity was determined by injecting luciferin and measuring light emission at 562 nm and expressed as relative light units (RLU) by using the values of β-galactosidase activity for normalisation of the luciferase activity. All transfection assays shown were performed in duplicate and were repeated at least twice.
For determining antiandrogenic activity in the various extracts from the bark of P. africanum, the extracts were used at a concentration of 300 μg/ml.
For determining the antiandrogenic activity in the fractions of the selective methylene chloride extracts, 2 μl of the respective fraction was used, corresponding to a final concentration of 30 μg/ml. Fractions F6 to F10 were additionally tested with 4 μl, corresponding to 60 μg/ml final concentration.

LNCaP cells = test: growth inhibition of human prostate carcinoma cells (cell counting); format: cell-based; settings: 0.1 μM OH—F
Excerpt: The growth of prostate cells and prostate cancer cells is originally dependent on androgens.
The cells were trypsinized and counted using a counting cell chamber on the indicated days.

[2] = cited from earlier work
[3] = environment; cited from earlier work

SMILES	inhibition of the AR-mediated transactivation, compared with NBBS (FIG. 6) [1]	also measured
CCCCCCCCCCCCNS(=O)(=O)c1ccccc1 [S12, N-Dodecylbenzenesulfonamide]	weakened the androgen antagonistic potency	melting point: 59 to 61 °C
CC(C)(O)C(=O)Nc1ccc([N+](=O)[O-])c(C(F)(F)F)c1 [OH—F, hydroxyflutamide]		proliferation of LNCaP cells (FIG. 4) (LNCaP cells): did not lead to reduction in cell proliferation
CCCCNS(=O)(=O)c1ccccc1 [NBBS, N-butylbenzenesulfonamide]		solubility in alcohols and benzene ([2]; alcohols and benzene): moderate solubility; solubility in water ([2]; water): practically insoluble; stability [3]: very stable
CCCCNS(=O)(=O)c1ccc([N+](=O)[O-])c(C(F)(F)F)c1 [S13, N-Butyl-4-nitro-3-(trifluoromethyl)benzenesulfonamide]	enhanced antiandrogenic activity	
CC(C)=CCC/C(C)=C/CNS(=O)(=O)c1ccc([N+](=O)[O-])c(C(F)(F)F)c1 [S14, N-[(2E)-3,7-Dimethylocta-2,6-diene-1-yl]-4-nitro-3-(trifluoromethyl)-benzenesulfonamide]	enhanced antiandrogenic activity	
CC(C)=CCC/C(C)=C/CNS(=O)(=O)c1cccc(C(F)(F)F)c1 [S11, N-[(2E)-3,7-dimethylocta-2,6-diene-1-yl]-3-(tri-fluoromethyl)benzenesulfonamide]	enhanced antiandrogenic activity	

The next lines start with results.

inhibition of the AR-mediated transactivation, compared with NBBS (FIG. 6) [1]	SMILES	also measured
enhanced antiandrogenic activity	CCCCNS(=O)(=O)c1cccc(C(F)(F)F)c1 [S10, N-Butyl-3-(trifluoromethyl)benzenesulfonamide]	
enhanced the antiandrogenic activity	CC(C)=CCC/C(C)=C/CNS(=O)(=O)c1ccccc1 [S4, N-[(2E)-3,7-Dimethylocta-2,6-diene-1-yl]benzenesulfonamide]	
enhanced the antiandrogenic activity	CCCCCNS(=O)(=O)c1ccccc1 [S9, N-Pentylbenzenesulfonamide]	
